Data published in PubChem BioAssay AID342 (DTP/NCI, 2004).
Several values for one entry are separate records, joined by “and”; a condition that tells them apart may be missing. Identical values can stand only once.

System: Swiss mice, Sarcoma 180 sc, mean tumor weight T/C
Test: NCI In Vivo Anticancer Drug Screen. Data for tumor model Sarcoma 180 (subcutaneous) in Swiss mice
Conditions: endpoint: mean tumor weight, higher = larger tumour
In short: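 Mice bearing transplanted tumors were treated with compound, and survival or tumor size was measured. Values are expressed as the treated-group measurement (T) divided by the vehicle-treated control measurement (C).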

[1] = dose: 62.0 mg/kg/injection, schedule: Q01DX007 (ip), vehicle: saline
[2] = dose: 50.0 mg/kg/injection, schedule: Q01DX007 (ip), vehicle: other
[3] = dose: 100.0 mg/kg/injection, schedule: Q01DX007 (ip), vehicle: other

For `Cc1ccc(N=NN(C)C)cc1`, the T/C (dose: 9.8 mg/kg/injection, schedule: Q01DX007 (ip), vehicle: carboxymethylcellulose (CMC)) was 86 % of control, the T/C (dose: 14.8 mg/kg/injection, schedule: Q01DX007 (ip), vehicle: carboxymethylcellulose (CMC)) was 70 % of control and the T/C (dose: 15.0 mg/kg/injection, schedule: Q01DX007 (ip), vehicle: carboxymethylcellulose (CMC)) was 62 % of control. For the same compound, the T/C (dose: 16.65 mg/kg/injection, schedule: Q#A X014 (ip), vehicle: carboxymethylcellulose (CMC)) was 45 % of control, the T/C (dose: 22.2 mg/kg/injection, schedule: Q01DX007 (ip), vehicle: carboxymethylcellulose (CMC)) was 49 % of control and the T/C (dose: 25.0 mg/kg/injection, schedule: Q#A X014 (ip), vehicle: carboxymethylcellulose (CMC)) was 43 % of control. The T/C (dose: 33.3 mg/kg/injection, schedule: Q01DX007 (ip), vehicle: carboxymethylcellulose (CMC)) was 60 % of control, the T/C (dose: 37.5 mg/kg/injection, schedule: Q#A X014 (ip), vehicle: carboxymethylcellulose (CMC)) was 30 % of control and the T/C (dose: 56.0 mg/kg/injection, schedule: Q#A X014 (ip), vehicle: carboxymethylcellulose (CMC)) was 14 % of control. The T/C (dose: 56.25 mg/kg/injection, schedule: Q#A X014 (ip), vehicle: methylcellulose (MC)) was 36 % of control and 38 % of control and the T/C (dose: 115.0 mg/kg/injection, schedule: Q01DX007 (ip), vehicle: carboxymethylcellulose (CMC)) was 34 % of control.
`CC(=O)C1=C(O)C2(O)C(=O)c3c(c(C)c4ccc(C)c(O)c4c3O)CC2C(N)C1=O` (stereo unspecified) was tested, and the T/C (dose: 18.8 mg/kg/injection, schedule: Q01DX007 (ip), vehicle: saline) was 114 % of control, the T/C (dose: 37.5 mg/kg/injection, schedule: Q01DX007 (ip), vehicle: saline) was 112 % of control and the T/C (dose: 75.0 mg/kg/injection, schedule: Q01DX007 (ip), vehicle: saline) was 81 % of control. The T/C (dose: 150.0 mg/kg/injection, schedule: Q01DX007 (ip), vehicle: saline) was 104 % of control.
In the case of `C[N+]1(CCC[N+]2(C)CC3C4C=CC(CC4)C3C2)CCOCC1` (stereo unspecified), the T/C (dose: 7.75 mg/kg/injection, schedule: Q01DX007 (ip), vehicle: saline) is reported as 62 % of control, the T/C (dose: 15.5 mg/kg/injection, schedule: Q01DX007 (ip), vehicle: saline) is reported as 52 % of control and the T/C (dose: 31.0 mg/kg/injection, schedule: Q01DX007 (ip), vehicle: saline) is reported as 86 % of control. The T/C [1] was 45 % of control.
In the case of `Brc1ccc(-c2csc(Nc3nc(-c4ccc(Br)cc4)cs3)n2)cc1`, the T/C (dose: 200.0 mg/kg/injection, schedule: Q01DX007 (ip), vehicle: carboxymethylcellulose (CMC)) is reported as 56 % of control and 73 % of control, the T/C (dose: 300.0 mg/kg/injection, schedule: Q01DX007 (ip), vehicle: carboxymethylcellulose (CMC)) is reported as 52 % of control and 60 % of control and the T/C (dose: 675.0 mg/kg/injection, schedule: Q01DX007 (ip), vehicle: carboxymethylcellulose (CMC)) is reported as 31 % of control.
`CC(=O)[C@@]1(O)[C@H](C)C[C@H]2[C@@H]3C=C(C)C4=Cc5c(cnn5-c5ccccc5)C[C@]4(C)[C@H]3[C@@H](O)C[C@@]21C` was tested, and the T/C (dose: 0.11 mg/kg/injection, schedule: Q01DX007 (sc), vehicle: steriod suspending solution) was 95 % of control, the T/C (dose: 0.17 mg/kg/injection, schedule: Q01DX007 (sc), vehicle: steriod suspending solution) was 84 % of control and the T/C (dose: 0.75 mg/kg/injection, schedule: Q01DX007 (sc), vehicle: steriod suspending solution) was 22 % of control and 42 % of control. For the same compound, the T/C (dose: 1.0 mg/kg/injection, schedule: Q01DX007 (sc), vehicle: steriod suspending solution) was 21 % of control, the T/C (dose: 2.0 mg/kg/injection, schedule: Q01DX007 (sc), vehicle: steriod suspending solution) was 23 % of control and the T/C (dose: 4.0 mg/kg/injection, schedule: Q01DX007 (sc), vehicle: steriod suspending solution) was 9 % of control.
With `S=P(N1CC1)(N1CC1)N1CC1` the T/C (dose: 0.43 mg/kg/injection, schedule: Q01DX007 (ip), vehicle: carboxymethylcellulose (CMC)) was 91 % of control, the T/C (dose: 0.87 mg/kg/injection, schedule: Q01DX007 (ip), vehicle: carboxymethylcellulose (CMC)) was 85 % of control and the T/C (dose: 1.75 mg/kg/injection, schedule: Q01DX007 (ip), vehicle: carboxymethylcellulose (CMC)) was 104 % of control. The T/C (dose: 3.5 mg/kg/injection, schedule: Q01DX007 (ip), vehicle: carboxymethylcellulose (CMC)) was 65 % of control, the T/C (dose: 218.5 mg/kg/injection, schedule: Q#A X014 (ip), vehicle: carboxymethylcellulose (CMC)) was 108 % of control and the T/C (dose: 437.5 mg/kg/injection, schedule: Q#A X014 (ip), vehicle: carboxymethylcellulose (CMC)) was 110 % of control. The T/C (dose: 875.0 mg/kg/injection, schedule: Q#A X014 (ip), vehicle: carboxymethylcellulose (CMC)) was 46 % of control.
With `C[C@]12CC[C@H](O)CC1=CC[C@@H]1[C@@H]2CC[C@]2(C)c3nc4ccccc4cc3C[C@@H]12` the T/C (dose: 15.6 mg/kg/injection, schedule: Q01DX007 (sc), vehicle: saline) was 93 % of control, the T/C (dose: 62.5 mg/kg/injection, schedule: Q01DX007 (sc), vehicle: saline) was 57 % of control and the T/C (dose: 125.0 mg/kg/injection, schedule: Q01DX007 (sc), vehicle: saline) was 95 % of control. For the same compound, the T/C (dose: 250.0 mg/kg/injection, schedule: Q01DX007 (sc), vehicle: saline) was 66 % of control and the T/C (dose: 500.0 mg/kg/injection, schedule: Q01DX007 (sc), vehicle: saline) was 93 % of control.
In the case of `Cc1cn(C2OC(CO)C(O)C2O)c(=O)[nH]c1=O` (stereo unspecified), the T/C (dose: 7.5 mg/kg/injection, schedule: Q01DX007 (ip), vehicle: saline) is reported as 90 % of control, the T/C (dose: 30.0 mg/kg/injection, schedule: Q01DX007 (ip), vehicle: saline) is reported as 115 % of control and the T/C (dose: 60.0 mg/kg/injection, schedule: Q01DX007 (ip), vehicle: saline) is reported as 89 % of control. The T/C (dose: 120.0 mg/kg/injection, schedule: Q01DX007 (ip), vehicle: saline) was 99 % of control.
`CCN(CC)P(=S)(N1CC1)N1CC1` was tested, and the T/C (dose: 25.0 mg/kg/injection, schedule: Q01DX007 (ip), vehicle: other) was 3 % of control, the T/C [2] was 31 % of control and the T/C [3] was 1 % of control. The T/C (dose: 220.0 mg/kg/injection, schedule: Q01DX007 (ip), vehicle: saline) was 25 % of control.
`CCOC(=O)C(Cc1ccccc1)c1ccc(Cl)cc1` (stereo unspecified) was tested, and the T/C (dose: 62.5 mg/kg/injection, schedule: Q01DX007 (ip), vehicle: methylcellulose (MC)) was 67 % of control, the T/C (dose: 125.0 mg/kg/injection, schedule: Q01DX007 (ip), vehicle: methylcellulose (MC)) was 75 % of control and the T/C (dose: 250.0 mg/kg/injection, schedule: Q01DX007 (ip), vehicle: methylcellulose (MC)) was 118 % of control.
With `CN1CCC23c4c5ccc(O)c4OC2C(O)C=CC3C1C5` (stereo unspecified) the T/C [1] was 90 % of control, the T/C (dose: 125.0 mg/kg/injection, schedule: Q01DX007 (ip), vehicle: saline) was 99 % of control and the T/C (dose: 250.0 mg/kg/injection, schedule: Q01DX007 (ip), vehicle: saline) was 48 % of control.
With `COC(=O)C1=CO[C@@H](C)[C@@H]2Cn3ccc4c5ccccc5nc-4c3C[C@H]12` the T/C (dose: 10.0 mg/kg/injection, schedule: Q01DX007 (ip), vehicle: other) was 113 % of control and the T/C [2] was 74 % of control.
In the case of `CN(CCO)/N=N/c1nc[nH]c1C(N)=O`, the T/C (dose: 125.0 mg/kg/injection, schedule: Q01DX007 (ip), vehicle: carboxymethylcellulose (CMC)) is reported as 73 % of control and the T/C (dose: 250.0 mg/kg/injection, schedule: Q01DX007 (ip), vehicle: carboxymethylcellulose (CMC)) is reported as 78 % of control.
`S=C(N=Nc1ccccc1)NNc1ccccc1` was tested, and the T/C (dose: 37.5 mg/kg/injection, schedule: Q01DX007 (ip), vehicle: carboxymethylcellulose (CMC)) was 110 % of control and the T/C (dose: 75.0 mg/kg/injection, schedule: Q01DX007 (ip), vehicle: carboxymethylcellulose (CMC)) was 47 % of control.
In the case of `CC#CC(C)(O)CC` (stereo unspecified), the T/C (dose: 77.0 mg/kg/injection, schedule: Q#A X014 (ip), vehicle: methylcellulose (MC)) is reported as 79 % of control, the T/C (dose: 115.5 mg/kg/injection, schedule: Q#A X014 (ip), vehicle: methylcellulose (MC)) is reported as 75 % of control and the T/C (dose: 175.0 mg/kg/injection, schedule: Q#A X014 (ip), vehicle: methylcellulose (MC)) is reported as 51 % of control. The T/C (dose: 212.5 mg/kg/injection, schedule: Q#A X014 (ip), vehicle: methylcellulose (MC)) was 44 % of control.
With `COc1cc2c3c(c4cc(OC)c(OC)cc4c2cc1OC)CN1CCC[C@H]1C3` the T/C (dose: 10.0 mg/kg/injection, schedule: Q01DX007 (ip), vehicle: water) was 70 % of control, the T/C (dose: 12.0 mg/kg/injection, schedule: Q01DX007 (ip), vehicle: water) was 81 % of control and the T/C (dose: 18.0 mg/kg/injection, schedule: Q01DX007 (ip), vehicle: water) was 42 % of control.
For `CC(C)=CCC1=C(O)c2ccccc2C(=O)C1=O`, the T/C (dose: 30.0 mg/kg/injection, schedule: Q01DX007 (ip), vehicle: water) was 96 % of control, the T/C (dose: 50.0 mg/kg/injection, schedule: Q01DX007 (ip), vehicle: water) was 97 % of control and the T/C (dose: 67.0 mg/kg/injection, schedule: Q01DX007 (ip), vehicle: other) was 68 % of control. For the same compound, the T/C [3] was 90 % of control, the T/C (dose: 100.0 mg/kg/injection, schedule: Q01DX007 (ip), vehicle: water) was 91 % of control and 107 % of control and the T/C (dose: 100.0 mg/kg/injection, schedule: Q#A X014 (oral), vehicle: other) was 70 % of control. The T/C (dose: 150.0 mg/kg/injection, schedule: Q01DX007 (ip), vehicle: other) was 73 % of control, the T/C (dose: 150.0 mg/kg/injection, schedule: Q#A X014 (oral), vehicle: other) was 46 % of control and the T/C (dose: 200.0 mg/kg/injection, schedule: Q#A X014 (oral), vehicle: other) was 42 % of control.
